From ChEMBL document CHEMBL1201862, “PubChem BioAssay data set” (2004) come the findings set out here.

Each structure is given as a SMILES string.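 In this assay, cells in 96-well plates receive the compound at five concentrations for 48 hours. Endpoints are linearly interpolated between the surrounding concentrations. The concentration for 50% growth inhibition is given as GI50.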 The source made the active and inactive calls. Rule as the data show it: active = GI50 up to about 1.1 µM and inactive = higher.

Some test systems named below: SW-620; SNB-19; U-251; NCI-H226; SF-268; RPMI-8226; MOLT-4; NCI-H23; IGROV-1; UACC-257; HOP-92; 786-0; LOX IMVI; NCI-H460; HCT-116.
Assay in all cases: NCI-60 cell line screen, 48 h

In the case of `Cc1ccc2nc(NC(=O)C(=O)CC(=O)c3cccc4ccccc34)sc2c1`, the GI50 with SW-620 was 38.9 µM (inactive); in the test on SNB-19, 39.7 µM (inactive); in the test on U-251, 22 µM (inactive); in the test with NCI-H226, 19.8 µM (inactive); in the test on SF-268 it was 32.6 µM (inactive); in the test on RPMI-8226, 91.8 µM (inactive). Further, the GI50 was 42.1 µM (inactive) with MOLT-4; 50.8 µM (inactive) in the test on NCI-H23; 31.7 µM (inactive) in the test with IGROV-1; 27.2 µM (inactive) in the test on UACC-257; 14.8 µM (inactive) in the test on HOP-92; 20.2 µM (inactive) with 786-0. Also, the GI50 was 32.2 µM (inactive) in the test with LOX IMVI and 52 µM (inactive) in the test on NCI-H460.

Regarding `CCC1NCC(=O)c2c1[nH]c1ccccc21` (configuration not stated), the GI50 with SW-620, in the test with SNB-19, in the test on U-251, in the test with NCI-H226, in the test with SF-268 and with RPMI-8226 was > 100 µM (inactive) in each case. Also, the GI50 with MOLT-4, in the test on NCI-H23, with IGROV-1, with UACC-257, in the test with HOP-92 and in the test with 786-0 was > 100 µM (inactive) in each case. The GI50 in the test on HCT-116, in the test with LOX IMVI and in the test with NCI-H460 was > 100 µM (inactive) throughout.

In the case of `O=C(O)CNCc1c2ccccc2[n+]([O-])c2ccccc12`, the GI50 is 47 µM (inactive) in the test with SW-620; > 100 µM (inactive) in the test on SNB-19; > 100 µM (inactive) in the test with U-251; > 100 µM (inactive) in the test with NCI-H226; 43.8 µM (inactive) in the test on SF-268; 30.8 µM (inactive) in the test with RPMI-8226. Moreover, the GI50 is 31 µM (inactive) in the test on MOLT-4; 69.3 µM (inactive) with NCI-H23; 91.6 µM (inactive) in the test with IGROV-1; > 100 µM (inactive) with UACC-257; 16.9 µM (inactive) in the test on HOP-92; 58.2 µM (inactive) in the test on 786-0. Moreover, the GI50 is 20.2 µM (inactive) with HCT-116, 36.6 µM (inactive) in the test on LOX IMVI and 72.4 µM (inactive) in the test with NCI-H460.

Turning to `CCCCN(CCCC)CC(C(=O)Nc1ccc([N+](=O)[O-])cc1[N+](=O)[O-])/C(C)=N\NC(=S)NN` (configuration not stated), the GI50 is > 100 µM (inactive) in the test with SW-620; > 100 µM (inactive) in the test on U-251; > 100 µM (inactive) with NCI-H226; > 100 µM (inactive) in the test with SF-268; 50.1 µM (inactive) with RPMI-8226; 70 µM (inactive) in the test with MOLT-4. Further, the GI50 is > 100 µM (inactive) in the test on NCI-H23; > 100 µM (inactive) in the test with IGROV-1; > 100 µM (inactive) in the test on UACC-257; 42.1 µM (inactive) in the test with HOP-92; > 100 µM (inactive) in the test with 786-0; > 100 µM (inactive) in the test on HCT-116. Moreover, the GI50 in the test with LOX IMVI and with NCI-H460 was > 100 µM (inactive) throughout.

With `COc1cc(C2c3cc4c(cc3[C@@H](NCCN3CCCCC3)C3COC(=O)[C@H]23)OCO4)cc(OC)c1O` (some centres not stated), the GI50 is 1.04 µM (active) with SW-620; 0.354 µM (active) in the test with SNB-19; 0.109 µM (active) in the test with U-251; 0.0387 µM (active) with NCI-H226; 0.346 µM (active) with SF-268; 0.277 µM (active) in the test with RPMI-8226. In addition, the GI50 in the test on MOLT-4 is 0.0164 µM (active); in the test with NCI-H23, 0.206 µM (active); in the test with IGROV-1 it was 1.33 µM (inactive); with UACC-257, 2.78 µM (inactive); with HOP-92 it was 0.142 µM (active); with 786-0 it was 0.179 µM (active). Also, the values for the GI50 in the test on HCT-116 and in the test with LOX IMVI were 1.15 µM (inactive) and 0.237 µM (active), respectively.
